Results as given in publication PMC9782626, “Copper(II) Complexes of 5–Fluoro–Salicylaldehyde: Synthesis, Characterization, Antioxidant Properties, Interaction with DNA and Serum Albumins” (Molecules, 2022).

Biological target: T1, bovine serum albumin (BSA) (Bos taurus, UniProt P02769)
T1 construct: purchased Sigma–Aldrich Co
Assay: Albumin binding by tryptophan fluorescence quenching (BSA)
Conditions: for ΔΙ/Ιο, quenching of the BSA fluorescence: BSA 3 μM, λex 295 nm; for % relative BSA fluorescence emission intensity I/Io remaining (% of initial): final value, pH 7.0; for BSA-binding constant K: Scatchard equation; for BSA-quenching constant kq: from Stern–Volmer plots, τo 10^-8 s
Description: Serum albumins are among the important proteins of the circulatory system. Their main role is to carry drugs and other bioactive small molecules through the bloodstream. BSA and HSA are structurally homologous albumins, having two and one tryptophan residues, respectively. The tryptophan residues of both albumins are responsible for the intense fluorescence emission band with λem,max = 342 nm for BSA and 350 nm for HSA, respectively, when their solutions are excited at 295 nm. […] The inner-filter effect was calculated with Equation (S4) and it was found too low to affect the measurements.
When the compounds were added to a solution of the albumins (3 μM), a significant quenching of the BSA (λem = 342 nm) and HSA (λem = 350 nm) fluorescence emission bands was observed (Figure 7) which was more pronounced in the case of BSA (Table 7 and Figure 8). […] The observed quenching may be ascribed to changes in the tryptophan environment of SA resulting from possible denaturation of their secondary structure, induced by the binding of the complexes to the albumins. […]
Io =1+ k τ [Q] =1+ K [Q] […]
S3Albumin -binding studies
In order to investigate if the compounds can bind to carrier proteins like serum albumins, we carried out albumin binding study by tryptophan fluorescence quenching experiments using bo vine serum albumin (BSA, 3 μM) in buffer (containing 15 mM trisodium citrate and 150 mM NaCl at pH 7.0). The quenching of the emission intensity of tryptophan residues of BSA at 343 nm was monitored using the co mpounds as que ncher s with increasing concentration [S4]. The fluo rescence emission spectra of the compounds were also recorded with λex = 295 nm. No fluorescence emission band was recorded and thus it was not related to the compounds . The influence of the inner-filter effect [S6] on the measurements wa s evaluated by equation S4.
Where Icorr = corrected intensity, Imeas = the measured intensity, c = the concentration of the quencher, d = the cuvette (1 cm), ε (λexc ) and ε(λe m) = the ε of the quencher at the excitation and the emission wavelength, respectively, as calculated from the UV-vis spectra of the […]
The Stern-Volmer and Scatchard graphs are used to study the interaction of the compounds with serum albumins. According to Stern-Volmer quenching equation (eq.
S2), where Io = the initial tryptophan fluorescence intensity of SA, I = the tryptophan fluorescence intensity of SA after the addition of the quencher, kq = the quenching […]
constant, KSV = the Stern-Volmer constant, τo = the average lifetime of SA without the quencher, and, tak ing as fluorescence lifet ime (τo) of tryptophan in SA at around 10-8 s [S 4] , KSV (in M -1) can be obtained by the slope of the diagram Io/I versus [compound] (Stern-Volmer plots), and subsequently the quenching (kq, in M -1s-1) may be calculated from eq.
From the Scatchard equation (eq. S5): […]
where n is the number of binding sites per albumin and K is the SA-binding constant (K, in M -1) is calculated from the slope in plots (ΔI/Io)/[complex] versus ΔI/Io and n is given by the ratio of y intercept to the slope [S7].
S1 Kontogiorgis, C.; Hadjipavlou–Lit ina, D. Biological Evaluat ion of Several Coumarin Derivatives Designed as Possible Anti–inflammatory/Antioxidant Agents. J. Enz. Inhib.
S2 Ruch, R.J.; Cheng, C.; Klaunig, J.E. Prevention of cytotoxicity and inhibition of intercellular communication by antioxidant catechins isolated from Chinese green tea.
S3 Wolfe, A.; Shimer, G.; Meehan, T. Polycyclic Aromatic Hydrocarbons Physically Intercalate into Duplex Regions of Denatured DNA. Biochemistry 1987, 26, 6392–6396.
S4 Lakowicz, J.R. Principles of Fluorescence Spectroscopy , 3rd ed.; Plenum Press: New […]
S5 Heller, D.P.; Greenstock, C.L. Fluorescence lifetime analysis of DNA intercalated ethid ium bromide and quench ing by free dye. Biophys. Chem.1994,50, 305–312.
S6 Stella, L.; Capodilupo, A.L.; Bietti, M. A reassessment of the association between […]
azulene and [60]fullerene. […]

T1 sequence (P02769 25-607): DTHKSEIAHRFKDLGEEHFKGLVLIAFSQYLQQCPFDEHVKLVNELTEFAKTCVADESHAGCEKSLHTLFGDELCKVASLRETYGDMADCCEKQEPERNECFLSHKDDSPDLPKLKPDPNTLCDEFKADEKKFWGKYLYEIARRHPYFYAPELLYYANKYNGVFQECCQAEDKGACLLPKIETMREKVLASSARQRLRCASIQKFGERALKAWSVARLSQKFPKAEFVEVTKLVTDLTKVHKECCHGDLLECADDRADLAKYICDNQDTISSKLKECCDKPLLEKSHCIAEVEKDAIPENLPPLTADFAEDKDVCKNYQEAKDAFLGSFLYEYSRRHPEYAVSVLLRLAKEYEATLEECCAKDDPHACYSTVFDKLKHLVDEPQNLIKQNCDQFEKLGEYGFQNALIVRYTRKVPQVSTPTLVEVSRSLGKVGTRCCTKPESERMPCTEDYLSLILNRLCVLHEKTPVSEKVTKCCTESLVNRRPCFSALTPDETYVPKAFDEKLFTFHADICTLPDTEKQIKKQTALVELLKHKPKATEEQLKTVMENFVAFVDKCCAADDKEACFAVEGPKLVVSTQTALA

SMILES | ΔΙ/Ιο, quenching of the BSA fluorescence [%] | % relative BSA fluorescence emission intensity I/Io remaining (% of initial) [%] | BSA-binding constant K | BSA-quenching constant kq
CO.Cc1ccc2ccc3ccc(C)nc3c2n1.O=Cc1cc(F)ccc1[O-].[Cl-].[Cu+2] [Complex 3, [Cu(5–F–salo)(neoc)Cl].CH3OH] | 84.3 | 15.7 | 2.51 (±0.10) × 10^5 M^−1 | 2.75 (±0.10) × 10^13 M^−1 s^−1
O=Cc1cc(F)ccc1[O-].O=[N+]([O-])[O-].[Cu+2].c1ccc(-c2ccccn2)nc1 [Complex 5, [Cu(5–F–salo)(bipy)(NO3)]] | 68.3 | – | 3.23 (±0.12) × 10^5 M^−1 | 1.87 (±0.09) × 10^13 M^−1 s^−1
O=Cc1cc(F)ccc1[O-].[Cl-].[Cu+2].c1ccc(Nc2ccccn2)nc1 [Complex 2, [Cu(5–F–salo)(bipyam)Cl]] | 54.0 | 46.0 | 3.15 (±0.18) × 10^4 M^−1 | 6.49 (±0.14) × 10^12 M^−1 s^−1
O=Cc1cc(F)ccc1[O-].O=Cc1cc(F)ccc1[O-].[Cu+2] [Complex 1, [Cu(5–F–salo)2]] | 62.5 | 37.5 | 4.05 (±0.02) × 10^4 M^−1 | 9.38 (±0.28) × 10^12 M^−1 s^−1
O=Cc1cc(F)ccc1[O-].O=[N+]([O-])[O-].[Cu+2].c1cnc2c(c1)ccc1cccnc12 [Complex 4, [Cu(5–F–salo)(phen)(NO3)]] | 75.3 | 24.7 | 2.35 (±0.10) × 10^5 M^−1 | 1.62 (±0.06) × 10^13 M^−1 s^−1
